# From US10968169B2, “Urea derivative” (Daiichi Sankyo Company, Limited, priority 2016, dated 2021)
# Molecular target: tryptophanase of Bacteroides thetaiotamicron (Bacteroides thetaiotaomicron, UniProt Q8A7N2)
# Test: Tryptophanase enzyme inhibitory activity (LDH-coupled NADH loss)
# Format: biochemical
# Settings: L-tryptophan 10 mM, 37° C., absorbance at 340 nm; read-out: Bacteroides Activity of Inhibiting Tryptophanase (IC50)
# Procedure: Tryptophanase inhibitory activity was evaluated by a method using lactate dehydrogenase (LDH). The reaction time-dependent reduction in NADH conjugated with the enzymatic reaction, with LDH, of pyruvic acid produced through the enzymatic reaction of L-tryptophan as a substrate with tryptophanase, was measured with a spectrophotometer (Phillips-R S et al., Biochemistry, 23, 6228-6234 (1984)). Enzyme inhibitory activity obtained without adding a test compound (by adding DMSO alone) in the presence of tryptophanase was used as a control. As the enzyme, tryptophanase of Bacteroides thetaiotamicron (Genbank accession number: HC914434.1) was used. A test compound solution was prepared by dissolving each test compound in DMSO in an arbitrary concentration (from 30 mM to 30 nM at 10-fold common ratio). LDH, NADH and L-tryptophan were prepared, using distilled water, respectively to concentrations of 80 units/mL, 10 mM and […]. Bacteroides tryptophanase was prepared to 30 mg/mL. A potassium phosphate buffer was used as the buffer. [table] A reaction solution A was dispensed at 284.8 μL per well into a 96-well plate, and the test compound solution was added at 3.2 μL per well to obtain a final concentration of 1/100 (reaction solution B). The reaction solution B was incubated at 37° C. for 30 minutes, L-tryptophan was added thereto at 32 μL per well to obtain a final concentration of 10 mM (reaction solution C), and the enzyme reaction was performed at 37° C. over 30 minutes with absorbance at 340 nm measured for monitoring the NADH loss. Based on the NADH loss, the tryptophanase inhibitory activity of the compound was evaluated. Besides, the following compounds were similarly tested instead of the test compound.
# tryptophanase of Bacteroides thetaiotamicron, sequence (Q8A7N2 entry or part of it, change not shown): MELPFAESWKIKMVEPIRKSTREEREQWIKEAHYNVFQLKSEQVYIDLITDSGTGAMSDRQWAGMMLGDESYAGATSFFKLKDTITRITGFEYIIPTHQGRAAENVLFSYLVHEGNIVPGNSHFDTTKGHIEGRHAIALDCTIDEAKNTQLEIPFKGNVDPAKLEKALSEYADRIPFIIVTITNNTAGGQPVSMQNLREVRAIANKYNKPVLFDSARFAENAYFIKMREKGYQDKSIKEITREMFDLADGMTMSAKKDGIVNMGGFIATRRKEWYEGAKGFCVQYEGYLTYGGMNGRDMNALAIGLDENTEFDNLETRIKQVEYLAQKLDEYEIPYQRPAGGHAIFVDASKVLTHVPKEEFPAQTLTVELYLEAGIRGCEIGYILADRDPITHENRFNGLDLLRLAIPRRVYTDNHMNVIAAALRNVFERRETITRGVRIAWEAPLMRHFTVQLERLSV
row,Structure (SMILES),IC50 [µM]
1,"CC[C@@](C)(NC(=O)Nc1ccc(OC(F)(F)F)cc1)C(=O)O [Example 4, (−)-N-{[4-(Trifluoromethoxy)phenyl]carbamoyl}-D-isovaline]",8.8
2,"CC[C@@](C)(NC(=O)Nc1ccc(CC(F)(F)F)cc1)C(=O)O [Example 13, N-{[4-(2,2,2-Trifluoroethyl)phenyl]carbamoyl}-D-isovaline]",6.7
3,"CC[C@@](C)(NC(=O)Nc1cccc(Cl)c1)C(=O)O [Example 26, N-[(3-Chlorophenyl)carbamoyl]-D-isovaline]",13.2
4,"CCC(NC(=O)Nc1ccc(OC(F)F)cc1)(C(=O)O)C1CC1 (centres unmarked) [Example 11, 2-Cyclopropyl-2-({[4-(difluoromethoxy)phenyl]carbamoyl}amino)butanoic acid]",0.6
5,"CCC(CC)(NC(=O)Nc1ccc(OC(F)(F)F)cc1)C(=O)O [Example 1, 2-Ethyl-2-({[4-(trifluoromethoxy)phenyl]carbamoyl}amino)butanoic acid]",3.7
6,"CCC(CC)(NC(=O)Nc1ccc(SC(F)(F)F)cc1)C(=O)O [Example 14, 2-Ethyl-2-[({4-[(trifluoromethyl)sulfanyl]phenyl}carbamoyl)amino]butanoic acid]",0.4
7,"CCC(NC(=O)Nc1ccc(F)cc1)(C(=O)O)C1CC1 (centres unmarked) [Example 23, 2-Cyclopropyl-2-{[(4-fluorophenyl)carbamoyl]amino}butanoic acid]",5.2
8,"CC[C@@](C)(NC(=O)Nc1ccc(OC(F)F)cc1F)C(=O)O [Example 17, N-{[4-(Difluoromethoxy)-2-fluorophenyl]carbamoyl}-D-isovaline]",12.3
9,"CCC(CC)(NC(=O)Nc1ccc(OC(F)F)cc1F)C(=O)O [Example 16, 2-({[4-(Difluoromethoxy)-2-fluorophenyl]carbamoyl}amino)-2-ethylbutanoic acid]",4.2
10,"CC(C)CC(C)(NC(=O)Nc1ccc(OC(F)(F)F)cc1)C(=O)O (centres unmarked) [Example 3, 2-Methyl-N-{[4-(trifluoromethoxy)phenyl]carbamoyl}leucine]",8.7
11,"O=C(Nc1ccc(OC(F)(F)F)cc1)NC(C(=O)O)(C1CC1)C1CC1 [Example 5, Dicyclopropyl({[4-(trifluoromethoxy)phenyl]carbamoyl}amino)acetic acid]",1.7
12,"CC[C@@](C)(NC(=O)Nc1ccc(OC(F)F)c(Cl)c1)C(=O)O [Example 18, N-{[3-Chloro-4-(difluoromethoxy)phenyl]carbamoyl}-D-isovaline]",5.3
13,"CCCC(CC)(NC(=O)Nc1ccc(OC(F)(F)F)cc1)C(=O)O (centres unmarked) [Example 6, 2-Ethyl-N-{[4-(trifluoromethoxy)phenyl]carbamoyl}norvaline]",5.3
14,"CCC(NC(=O)Nc1ccc(OC(F)(F)F)cc1)(C(=O)O)C1CC1 (centres unmarked) [Example 7, 2-Cyclopropyl-2-({[4-(trifluoromethoxy)phenyl]carbamoyl}amino)butanoic acid]",0.3
15,"O=C(Nc1ccccc1)NC(C(=O)O)(C1CC1)C1CC1 [Example 21, Dicyclopropyl[(phenylcarbamoyl)amino]acetic acid]",5
16,"CC[C@@](C)(NC(=O)Nc1ccc(OC(F)(F)F)c(C#N)c1)C(=O)O [Example 19, N-{[3-Cyano-4-(trifluoromethoxy)phenyl]carbamoyl}-D-isovaline]",35.6
17,"CCC(NC(=O)Nc1ccccc1)(C(=O)O)C1CC1 (centres unmarked) [Example 22, 2-Cyclopropyl-2-[(phenylcarbamoyl)amino]butanoic acid]",2.1
18,"CCC(CC)(NC(=O)Nc1ccc(C(F)(F)F)cc1)C(=O)O [Example 20, 2-Ethyl-2-({[4-(trifluoromethyl)phenyl]carbamoyl}amino)butanoic acid]",11.6
19,"CC[C@@](C)(NC(=O)Nc1cccc(F)c1)C(=O)O [Example 24, N-[(3-Fluorophenyl)carbamoyl]-D-isovaline]",33.2
20,"O=C(Nc1ccc(OC(F)F)cc1)NC(C(=O)O)(C1CC1)C1CC1 [Example 10, Dicyclopropyl({[4-(difluoromethoxy)phenyl]carbamoyl}amino)acetic acid]",1.9
21,"CC(NC(=O)Nc1ccc(OC(F)(F)F)cc1)(C(=O)O)C1CC1 (centres unmarked) [Example 2, 2-Cyclopropyl-2-({[4-(trifluoromethoxy)phenyl]carbamoyl}amino)propanoic acid]",20.3

# Continued, values first:
row,IC50 [µM],Structure (SMILES)
1,1.6,CCC(CC)(NC(=O)Nc1ccc(N2CCCCC2)cc1)C(=O)O [Example 43]
2,1,"CCC(NC(=O)Nc1cccc(C#N)c1)(C(=O)O)C1CC1 (centres unmarked) [Example 32, 2-{[(3-Cyanophenyl)carbamoyl]amino}-2-cyclopropylbutanoic acid]"
3,2.5,"CCC(CC)(NC(=O)Nc1ccc(N2CCC(F)(F)C2)cc1)C(=O)O [Example 44, 2-({[4-(3,3-Difluoropyrrolidine-1-yl)phenyl]carbamoyl}amino)-2-ethylbutanoic acid]"
4,0.3,"CCC(CC)(NC(=O)Nc1ccc(-c2ccccc2)cc1)C(=O)O [Example 41, 2-[(Biphenyl-4-ylcarbamoyl)amino]-2-ethylbutanoic acid]"
5,20.1,"CCC(CC)(NC(=O)Nc1cc(F)cc(C#N)c1)C(=O)O [Example 36, 2-{[(3-Cyano-5-fluorophenyl)carbamoyl]amino}-2-ethylbutanoic acid]"
6,10.9,"N#Cc1ccc(NC(=O)NC(C(=O)O)(C2CC2)C2CC2)cc1 [Example 35, {[(4-Cyanophenyl)carbamoyl]amino}(dicyclopropyl)acetic acid]"
7,3.2,"CCC(CC)(NC(=O)Nc1ccc(Cl)s1)C(=O)O [Example 28, 2-{[(5-Chlorothiophen-2-yl)carbamoyl]amino}-2-ethylbutanoic acid]"
8,5.8,"CCC(CC)(NC(=O)Nc1ccc(C(C)C#N)cc1)C(=O)O (centres unmarked) [Example 40, 2-({[4-(1-Cyanoethyl)phenyl]carbamoyl}amino)-2-ethylbutanoic acid]"
9,0.1,"CCC(CC)(NC(=O)Nc1ccc(-c2ccccc2F)cc1)C(=O)O [Example 42, 2-Ethyl-2-{[(2′-fluorobiphenyl-4-yl)carbamoyl]amino}butanoic acid]"
10,5.2,"CCC(CC)(NC(=O)Nc1ccc(C2(C#N)CC2)cc1)C(=O)O [Example 39, 2-({[4-(1-Cyanocyclopropyl)phenyl]carbamoyl}amino)-2-ethylbutanoic acid]"
11,1.8,"N#Cc1cccc(NC(=O)NC(C(=O)O)(C2CC2)C2CC2)c1 [Example 34, {[(3-Cyanophenyl)carbamoyl]amino}(dicyclopropyl)acetic acid]"
12,15.5,"CC[C@@](C)(NC(=O)Nc1ccc(Cl)c(Cl)c1)C(=O)O [Example 29, N-[(3,4-Dichlorophenyl)carbamoyl]-D-isovaline]"
13,25,"CCC(CC)(NC(=O)Nc1ccc(Cl)c(C#N)c1)C(=O)O [Example 37, 2-{[(4-Chloro-3-cyanophenyl)carbamoyl]amino}-2-ethylbutanoic acid]"
14,3.4,"N#CCc1ccc(NC(=O)NC(C(=O)O)(C2CC2)C2CC2)cc1 [Example 38, ({[4-(Cyanomethyl)phenyl]carbamoyl}amino)(dicyclopropyl)acetic acid]"
